System: lumbar spinal cord α- and γ-motor neurons
Test: Motor neuron counts (cresyl violet, Nissl), lumbar spinal cord
Type: in vivo, mouse
Method: Mice were sacrificed for histological analysis at 35 weeks (35.9-48.6 g) and 52 weeks (41.2-51.4 g) of age. Age-matched control mice from each time point were included for comparison. The mice were deeply anaesthetized in a chamber with 4% isoflurane and perfused intracardially with filtered PBS (pH 7.4) until the effluent was cleared of blood (2 minutes), followed by perfusion with cold (4° C.) 4% paraformaldehyde (PFA) in 0.1 M phosphate buffer (pH 7.4) for 5 minutes (30 mL). The PBS and the PFA were delivered through separate sterile platinum-cured silicon tubing (Cole-Parmer Canada Inc., Montreal, Canada) and peristaltic pumps (MasterFlex peristaltic pump, Cole-Parmer Canada Inc., Montreal, Canada). The brains and spinal cords were dissected out and fixed overnight at 4° C. and equilibrated in increasing concentrations of sucrose in phosphate-buffered saline, pH 7.4 (10, 20, and 25%) over a 3-day period. Complete equilibration of the tissues was taken as the moment the tissues sank to the bottom of the scintillation tubes filled with 25% sucrose. After equilibration, the spinal cord and brain specimens were set in molds (Tissue-tek Cryomold, Sakura Finetek, USA, Torrance, Calif.) with an optimum cutting temperature (OCT) gel-sucrose mixture frozen by immersion in an isopentane (BDH Laboratory Supplies, UK) bath on dry ice and stored at −80° C. until processing.
Cryosectioning of tissue: Frozen, coronal sections (spinal cord: 20 μm, brain: 30 μm) were cut with a Hacker-Bright cryostat (Hacker Instruments and Industries Inc., Winnsboro, S.C.) and mounted on charged glass slides (Superfrost Plus; Fisher Scientific, Pittsburgh, Pa.) so that adjacent CNS sections on each slide represented regions 100 μm and 150 μm apart for spinal cord and brain, respectively (Tabata et al., 2008). The slides were stored at −80° C. until histological processing. To ensure CNS sections were matched between animals, anatomical landmarks were verified using a mouse brain atlas (Paxinos and Franklin, The mouse brain in stereotaxic coordinates: Second Edition, K.B.J., Academic Press, New York, 2001).
Histology and quantification of motor neurons: Spinal cord and brain sections from each animal were stained for Nissl body substance. At room temperature (RT), sections were rinsed in a graded ethanol series (95%:15 min; 70%:1 min; 50%:1 min) to rehydrate and remove lipids and fixation chemicals from the tissue. The tissue were then rinsed for 2 min in two exchanges of distilled water, stained with twice-filtered cresyl violet stain (1.25 g cresyl violet acetate, 0.75 mL glacial acetic acid to 250 mL distilled water), rinsed in distilled water (1 minute), and then dehydrated (50% ethanol: 1 minute; 1% glacial acetic acid-70% ethanol: 2 minutes; 95% ethanol: 2 minutes; 95% ethanol: 3 dips; 100% ethanol: 1 minute) and cleared in xylene. The slides were then cover-slipped in Entellen mountant (Merck, Darmstadt, Germany). The tissue mounted slides were selected with a randomized start and sampled starting from the lumbar 2 region to the 6th. […] The boundaries for the ventral horn was determined by the margins of the gray matter for the lateral, medial and ventral boundaries as well as with the aid of an artificial line drawn laterally through the central canal. Both the left and right ventral horns from 12 sections from each animal were counted. Alpha-motor neurons and γ-motor neurons with and without apoptotic structural changes were counted using strict morphological and size criteria. Non-apoptotic α-neurons were considered as the following: Large, multipolar cells with a round, pale nucleus; visible nucleolus; globular Nissl body staining of the cytoplasm; and a diameter of 30-45 μm. In doing so, astrocytes, oligodendrocytes and microglia were excluded from the “α-motor neuron” counts (Martin, L. J. (1999) J Neuropathol Exp Neurol. 58, 459-71; Sepkuty, J. P., et al. (2002) J Neurosci. 22, 6372-9; Tabata et al., 2008). […]

[1] = SG-fed vs control, Time-point 1 (35 wk)
[2] = SG-fed vs control, Time-point 2 (52 wk)
[3] = SG-group over time (35 to 52 wk)

CC[C@H](/C=C/[C@@H](C)[C@H]1CC[C@H]2[C@@H]3CC=C4C[C@@H](O[C@@H]5O[C@H](CO)[C@@H](O)[C@H](O)[C@H]5O)CC[C@]4(C)[C@H]3CC[C@]12C)C(C)C [SG, Stigmasterol β-D-Glucopyranoside]
Chromatolytic α-MN [1]: Chromatolytic α-MN (ns)
Healthy α-MN per lumbar cord section [1]: Healthy α-MN (ns)
Pyknotic α-MN [1]: Pyknotic α-MN (ns)
Total γ-MN [1]: Total γ-MN (ns)
Chromatolytic α-MN [2]: Chromatolytic α-MN (ns)
Pyknotic α-MN [2]: Pyknotic α-MN (ns)
Total γ-MN [2]: Total γ-MN (ns)
Chromatolytic α-MN over time [3]: (control group & SG-group independently over time) (ns)
Pyknotic α-MN over time [3]: (control group and SG-group independently over time) (ns)
Total γ-MN over time [3]: (control group and SG-group independently over time) (ns)

Source: patent publication US9573972B2, “Nurotoxic sterol glycosides” (priority 2008, dated 2017)
